Experimental data: ChEMBL document CHEMBL1201862, “PubChem BioAssay data set” (2004)
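Test compounds were applied to cells in 96-well plates for 48 hours at 5 doses. Here, GI50 denotes the concentration required for 50% inhibition of growth.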 Active and inactive are the calls of the source. Cut-off read from the data, not from the text of the source: active = GI50 up to about 1.1 µM and inactive = higher.

Legend:
Experiment in all cases: inhibition of tumour cell growth, NCI panel, 48 h
SF-295 = test system: SF-295
MOLT-4 = test system: MOLT-4
HT-29 = test system: HT-29
TK-10 = test system: TK-10
MDA-N = test system: MDA-N
COLO 205 = test system: COLO 205
OVCAR-5 = test system: OVCAR-5
OVCAR-8 = test system: OVCAR-8
U-251 = test system: U-251
OVCAR-4 = test system: OVCAR-4
CCRF-CEM = test system: CCRF-CEM
SN12C = test system: SN12C
RXF 393 = test system: RXF 393
MDA-MB-231 = test system: MDA-MB-231
HOP-62 = test system: HOP-62
SK-MEL-2 = test system: SK-MEL-2
SF-539 = test system: SF-539
SR = test system: SR
A549 = test system: A549
SW-620 = test system: SW-620

| Compound | GI50 (SF-295) | GI50 (MOLT-4) | GI50 (HT-29) | GI50 (TK-10) | GI50 (MDA-N) | GI50 (COLO 205) | GI50 (OVCAR-5) | GI50 (OVCAR-8) | GI50 (U-251) | GI50 (OVCAR-4) | GI50 (CCRF-CEM) | GI50 (SN12C) | GI50 (RXF 393) | GI50 (MDA-MB-231) | GI50 (HOP-62) | GI50 (SK-MEL-2) | GI50 (SF-539) | GI50 (SR) | GI50 (A549) | GI50 (SW-620) |
| --- | --- | --- | --- | --- | --- | --- | --- | --- | --- | --- | --- | --- | --- | --- | --- | --- | --- | --- | --- | --- |
| [N-]=[N+]=C1C(=O)c2ccccc2-c2ccccc21 | 33 µM (inactive) | 24.9 µM (inactive) | 34.8 µM (inactive) | 54 µM (inactive) | 43.7 µM (inactive) | 32.1 µM (inactive) | 34.1 µM (inactive) | 30.6 µM (inactive) | 31.3 µM (inactive) | 35.8 µM (inactive) | 20.2 µM (inactive) | 35.2 µM (inactive) | 15.6 µM (inactive) | 36 µM (inactive) | 41.2 µM (inactive) | 29.4 µM (inactive) | 24.6 µM (inactive) | 24.5 µM (inactive) | 30.4 µM (inactive) | 37.4 µM (inactive) |
| CC(=O)Nc1ccc(S(=O)(=O)/N=C2\C=CC(=O)c3ccccc32)cc1 | 7.29 µM (inactive) | 0.428 µM (active) | 13.6 µM (inactive) | 19.9 µM (inactive) | 1.95 µM (inactive) | 13.3 µM (inactive) | 8.55 µM (inactive) | 2.8 µM (inactive) | 5.81 µM (inactive) | 1.87 µM (inactive) | 3.37 µM (inactive) | 4.92 µM (inactive) | 6.38 µM (inactive) | 2.78 µM (inactive) | 8.83 µM (inactive) | 14.3 µM (inactive) | 7.66 µM (inactive) | 2.25 µM (inactive) | 9.98 µM (inactive) | 6.62 µM (inactive) |
| Cc1cccc(NC(=S)N/N=C(/c2ccccc2)c2ccccn2)c1 | 0.173 µM (active) | < 0.0149 µM (active) | 0.0285 µM (active) | 0.117 µM (active) | 0.46 µM (active) | < 0.0163 µM (active) | 0.0266 µM (active) | 0.038 µM (active) | 0.0299 µM (active) | 0.368 µM (active) | < 0.01 µM (active) | 0.359 µM (active) | 0.667 µM (active) | 0.0378 µM (active) | 1.29 µM (inactive) | 2.49 µM (inactive) | 1.31 µM (inactive) | < 0.0144 µM (active) | 0.22 µM (active) | < 0.019 µM (active) |
| CC(=O)OC12c3ccccc3-c3ccccc3C1C1C(=O)N(C)C(=O)C12Cl (stereo not drawn) | > 10 µM (inactive) | > 10 µM (inactive) | > 10 µM (inactive) | > 10 µM (inactive) | > 10 µM (inactive) | > 10 µM (inactive) | > 10 µM (inactive) | > 10 µM (inactive) | > 10 µM (inactive) | > 10 µM (inactive) | > 10 µM (inactive) | > 10 µM (inactive) | > 10 µM (inactive) | > 10 µM (inactive) | > 10 µM (inactive) | > 10 µM (inactive) | > 10 µM (inactive) | > 10 µM (inactive) | – | > 10 µM (inactive) |
| Nc1ccc2nc3n(c(=O)c2c1)CCCCC3 | > 100 µM (inactive) | > 100 µM (inactive) | > 100 µM (inactive) | > 100 µM (inactive) | > 100 µM (inactive) | > 100 µM (inactive) | > 100 µM (inactive) | > 100 µM (inactive) | > 100 µM (inactive) | > 100 µM (inactive) | > 100 µM (inactive) | > 100 µM (inactive) | > 100 µM (inactive) | > 100 µM (inactive) | > 100 µM (inactive) | > 100 µM (inactive) | > 100 µM (inactive) | > 100 µM (inactive) | > 100 µM (inactive) | > 100 µM (inactive) |
| COc1ccc2c(c1)C(=O)c1ccccc1C2 | 36.5 µM (inactive) | 28.6 µM (inactive) | 58.6 µM (inactive) | 48.1 µM (inactive) | > 100 µM (inactive) | 54.5 µM (inactive) | > 100 µM (inactive) | > 100 µM (inactive) | 45.2 µM (inactive) | 42.7 µM (inactive) | 25.1 µM (inactive) | > 100 µM (inactive) | 13.5 µM (inactive) | 18.9 µM (inactive) | 50.6 µM (inactive) | 48.3 µM (inactive) | 61.1 µM (inactive) | 46.7 µM (inactive) | 86.7 µM (inactive) | 71.4 µM (inactive) |
| Cc1c(CCCl)c(N=[N+]=[N-])n2c(nc3ccccc32)c1C#N | 1.67 µM (inactive) | 0.249 µM (active) | 1.58 µM (inactive) | 1.52 µM (inactive) | 1.56 µM (inactive) | 1.07 µM (active) | 1.94 µM (inactive) | 1.7 µM (inactive) | 2.17 µM (inactive) | 1.53 µM (inactive) | 0.236 µM (active) | 1.71 µM (inactive) | 1.4 µM (inactive) | 1.42 µM (inactive) | 2.13 µM (inactive) | 1.48 µM (inactive) | 1.82 µM (inactive) | 0.311 µM (active) | 2.12 µM (inactive) | 0.355 µM (active) |
| CCCCOc1ccc(NC(=N)Nc2ccc(Cl)cc2)cc1 | 2.3 µM (inactive) | 1.42 µM (inactive) | 0.243 µM (active) | 5.16 µM (inactive) | 5.58 µM (inactive) | 0.125 µM (active) | 1.68 µM (inactive) | 11.2 µM (inactive) | 9.68 µM (inactive) | 1.84 µM (inactive) | 0.251 µM (active) | 0.791 µM (active) | 11.5 µM (inactive) | 13.2 µM (inactive) | 0.235 µM (active) | 2.64 µM (inactive) | 0.558 µM (active) | 3.38 µM (inactive) | 0.741 µM (active) | 1.03 µM (active) |
| CC(C)NC(=O)OCc1c2c(n(C)c1COC(=O)NC(C)C)-c1cc(Cl)c(Cl)cc1CC2 | 46.5 µM (inactive) | 18.7 µM (inactive) | 31 µM (inactive) | 25.2 µM (inactive) | 32 µM (inactive) | 31.3 µM (inactive) | 25.8 µM (inactive) | 31 µM (inactive) | 18.2 µM (inactive) | 64.6 µM (inactive) | 17.2 µM (inactive) | 43 µM (inactive) | 21.7 µM (inactive) | 15.5 µM (inactive) | 54.5 µM (inactive) | 25.2 µM (inactive) | 50.2 µM (inactive) | > 100 µM (inactive) | 61 µM (inactive) | 45.7 µM (inactive) |
| CC(C)=CCC\C(C)=C/C=C/C(C)=C\C=C\C(C)=C/C=C/C=C(C)\C=C\C=C(C)/C=C/C=C(/C)CCC=C(C)C | > 100 µM (inactive) | > 100 µM (inactive) | > 100 µM (inactive) | > 100 µM (inactive) | > 100 µM (inactive) | > 100 µM (inactive) | > 100 µM (inactive) | > 100 µM (inactive) | – | > 100 µM (inactive) | > 100 µM (inactive) | > 100 µM (inactive) | > 100 µM (inactive) | > 100 µM (inactive) | > 100 µM (inactive) | > 100 µM (inactive) | > 100 µM (inactive) | > 100 µM (inactive) | > 100 µM (inactive) | > 100 µM (inactive) |
